Results on 15 compounds are retold here after US20260297081A1, “COMPOUNDS AND METHODS OF TREATING CANCERS” (Cullgen Inc., priority 2023, published 2026).

One assay deals with MCF7 cells. Put plainly: Anti-proliferation (viability) of MCF7 cells (Table 7, FIG. 2B). The note with it: Homo sapiens, MCF7, MCF7 cells, 3-6 days, 10-point serial dilution; read-out: GI IC50 in MCF-7. In kind it is cell-based.
Another assay deals with CDK4 (Homo sapiens, UniProt P11802+Q16531). Put plainly: CDK4 percentage degradation in Calu-1 cells (Table 6). The assay is classed as cell-based. The note with it: 16 hours; for inhibition at 0.04 µM: 40 nM; for inhibition at 0.2 µM: 200 nM. More on the design: Cells that express cyclin D1-3 and CDK4/6 proteins were treated with heterobifunctional compounds; endogenous in cells; host or cells: Calu-1. In a few lines: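 Calu-1 cells exposed to heterobifunctional compounds at 40 nM or 200 nM for 16 h. Cyclin D1 and CDK4 levels measured by Western blot of RIPA lysates (BCA-normalised loading), bands quantified by densitometry and expressed as percentage degradation.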

Bounds are passed on as bounds.

CDK4, sequence (P11802 2-303 limits assumed): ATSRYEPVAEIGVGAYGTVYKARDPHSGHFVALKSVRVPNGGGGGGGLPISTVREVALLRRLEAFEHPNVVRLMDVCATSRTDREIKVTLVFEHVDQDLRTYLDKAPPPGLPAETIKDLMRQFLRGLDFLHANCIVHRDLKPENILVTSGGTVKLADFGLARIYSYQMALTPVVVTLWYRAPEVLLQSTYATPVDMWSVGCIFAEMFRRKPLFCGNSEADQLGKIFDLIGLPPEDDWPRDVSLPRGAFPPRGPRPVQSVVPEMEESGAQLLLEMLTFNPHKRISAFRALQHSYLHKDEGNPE
CDK4, sequence (P24385 whole entry partner): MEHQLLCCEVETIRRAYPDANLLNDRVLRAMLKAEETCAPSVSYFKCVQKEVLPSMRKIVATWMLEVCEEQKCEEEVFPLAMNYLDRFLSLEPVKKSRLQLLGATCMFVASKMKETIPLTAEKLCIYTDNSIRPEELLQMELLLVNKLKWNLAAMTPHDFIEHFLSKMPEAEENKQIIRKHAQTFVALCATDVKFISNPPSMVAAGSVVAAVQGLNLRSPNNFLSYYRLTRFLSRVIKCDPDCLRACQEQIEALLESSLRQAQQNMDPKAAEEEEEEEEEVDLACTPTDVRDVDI
CDK4, sequence (Q16531 2-1140 limits assumed): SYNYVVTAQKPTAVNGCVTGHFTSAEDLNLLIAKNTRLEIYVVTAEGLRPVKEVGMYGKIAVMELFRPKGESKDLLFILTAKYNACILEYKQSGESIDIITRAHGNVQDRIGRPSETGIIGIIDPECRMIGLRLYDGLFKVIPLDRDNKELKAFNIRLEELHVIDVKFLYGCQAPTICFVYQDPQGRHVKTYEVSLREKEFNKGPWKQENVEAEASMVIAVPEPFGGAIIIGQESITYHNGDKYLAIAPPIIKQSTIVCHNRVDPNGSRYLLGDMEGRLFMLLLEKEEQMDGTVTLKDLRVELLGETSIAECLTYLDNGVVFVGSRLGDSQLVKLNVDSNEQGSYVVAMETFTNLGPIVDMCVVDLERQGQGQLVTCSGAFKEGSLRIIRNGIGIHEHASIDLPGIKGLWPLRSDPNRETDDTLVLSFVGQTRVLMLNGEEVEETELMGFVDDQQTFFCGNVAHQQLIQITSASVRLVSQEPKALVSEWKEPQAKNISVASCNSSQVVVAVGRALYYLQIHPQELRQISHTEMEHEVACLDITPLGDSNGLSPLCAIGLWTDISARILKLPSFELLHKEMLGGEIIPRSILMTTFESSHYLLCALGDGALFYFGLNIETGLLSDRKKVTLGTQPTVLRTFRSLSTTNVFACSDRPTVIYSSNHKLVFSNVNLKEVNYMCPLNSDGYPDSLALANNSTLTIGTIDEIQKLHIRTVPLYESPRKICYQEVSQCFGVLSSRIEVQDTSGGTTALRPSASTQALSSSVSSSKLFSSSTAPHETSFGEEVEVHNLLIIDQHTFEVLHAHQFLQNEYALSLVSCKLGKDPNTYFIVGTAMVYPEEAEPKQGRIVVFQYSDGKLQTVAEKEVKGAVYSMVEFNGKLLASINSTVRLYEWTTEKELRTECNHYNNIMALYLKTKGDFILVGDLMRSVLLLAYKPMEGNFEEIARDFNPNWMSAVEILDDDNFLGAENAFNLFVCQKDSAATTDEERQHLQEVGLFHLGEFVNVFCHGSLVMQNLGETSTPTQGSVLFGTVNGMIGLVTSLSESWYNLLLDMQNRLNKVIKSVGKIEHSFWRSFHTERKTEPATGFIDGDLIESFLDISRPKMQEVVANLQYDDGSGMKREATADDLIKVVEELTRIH

The term IC50 denotes the concentration that inhibits the measured activity by half. In the case of `CNc1ccc(C(=O)Nc2cc(C)n(C3CCC3)n2)c(NC2CC3(CC(NC(=O)CN4CCN(c5ccc(Nc6ncc7c(C)c(C(C)=O)c(=O)n(C8CCCC8)c7n6)nc5)CC4)C3)C2)n1` (stereo not drawn) [CPD-297, 2-((6-(2-(4-(6-((6-acetyl-8-cyclopentyl-5-methyl-7-oxo-7,8-dihydropyrido[2,3-d]pyrimidin-2-yl)amino)pyridin-3-yl)piperazin-1-yl)acetamido)spiro[3.3]heptan-2-yl)amino)-N-(1-cyclobutyl-5-methyl-1H-pyrazol-3-yl)-6-(methylamino)nicotinamide], the 50% inhibitory concentration (IC50) with MCF7 cells was more than 100 nM.

Turning to `CNc1ccc(C(=O)Nc2ccc(N(C)C)nn2)c(NC2CCN(C(=O)CNC3CCN(c4ccc(Nc5ncc6c(C)c(C(C)=O)c(=O)n(C7CCCC7)c6n5)nc4)CC3)CC2)n1` [CPD-299, 2-((1-((1-(6-((6-acetyl-8-cyclopentyl-5-methyl-7-oxo-7,8-dihydropyrido[2,3-d]pyrimidin-2-yl)amino)pyridin-3-yl)piperidin-4-yl)glycyl)piperidin-4-yl)amino)-N-(6-(dimethylamino)pyridazin-3-yl)-6-(methylamino)nicotinamide], the IC50 with MCF7 cells is less than 50 nM.

On to `CC(=O)c1c(C)c2cnc(Nc3ccc(N4CCN(CC(=O)NC5CC6(C5)CC(Nc5nc(CC(C)C)ccc5C(=O)Nc5cn(C)c(C7CC7)n5)C6)CC4)cn3)nc2n(C2CCCC2)c1=O` (stereo not drawn) [CPD-318, 2-((6-(2-(4-(6-((6-acetyl-8-cyclopentyl-5-methyl-7-oxo-7,8-dihydropyrido[2,3-d]pyrimidin-2-yl)amino)pyridin-3-yl)piperazin-1-yl)acetamido)spiro[3.3]heptan-2-yl)amino)-N-(2-cyclopropyl-1-methyl-1H-imidazol-4-yl)-6-isobutylnicotinamide], for which the IC50 in the assay on MCF7 cells is more than 100 nM. For orientation: inhibition means the share of the control response that was lost under treatment. High values mean a strong effect, low ones a weak effect. On to `CNc1ccc(C(=O)Nc2nc(C)c(C)o2)c(NC2CC3(CC(NC(=O)CN4CCN(c5ccc(Nc6ncc7c(C)c(C(C)=O)c(=O)n(C8CCCC8)c7n6)nc5)CC4)C3)C2)n1` (stereo not drawn) [CPD-247, 2-((6-(2-(4-(6-((6-acetyl-8-cyclopentyl-5-methyl-7-oxo-7,8-dihydropyrido[2,3-d]pyrimidin-2-yl)amino)pyridin-3-yl)piperazin-1-yl)acetamido)spiro[3.3]heptan-2-yl)amino)-N-(4,5-dimethyloxazol-2-yl)-6-(methylamino)nicotinamide], for which, on CDK4, the inhibition at 0.04 µM was in the range of 50 to 80% and the inhibition at 0.2 µM fell in the range of 50 to 80%. At CDK4, `CC(=O)c1c(C)c2cnc(Nc3ccc(N4CCN(CC(=O)NC(C)CCCCNc5nc(C6CC6)ccc5C(=O)Nc5ccc(C)c(C6CC6)n5)CC4)cn3)nc2n(C2CCCC2)c1=O` (stereo not drawn) [CPD-60, 2-((5-(2-(4-(6-((6-Acetyl-8-cyclopentyl-5-methyl-7-oxo-7,8-dihydropyrido[2,3-d]pyrimidin-2-yl)amino)pyridin-3-yl)piperazin-1-yl)acetamido)hexyl)amino)-6-cyclopropyl-N-(6-cyclopropyl-5-methylpyridin-2-yl)nicotinamide] showed an inhibition at 0.04 µM of 50 to 80% and an inhibition at 0.2 µM of 50 to 80%. Consider `CNc1ccc(C(=O)Nc2cn(C)c(C(C)C)n2)c(NC2CC3(CC(NC(=O)CN4CCN(c5ccc(Nc6ncc7c(C)c(C(C)=O)c(=O)n(C8CCCC8)c7n6)nc5)CC4)C3)C2)n1` (stereo not drawn) [CPD-195, 2-((6-(2-(4-(6-((6-acetyl-8-cyclopentyl-5-methyl-7-oxo-7,8-dihydropyrido[2,3-d]pyrimidin-2-yl)amino)pyridin-3-yl)piperazin-1-yl)acetamido)spiro[3.3]heptan-2-yl)amino)-N-(2-isopropyl-1-methyl-1H-imidazol-4-yl)-6-(methylamino)nicotinamide], for which, at CDK4, the inhibition at 0.04 µM was less than 30% and the inhibition at 0.2 µM lay in the range of 50 to 80%. Taken in the same sequence, the figures for `[2H]C([2H])([2H])Nc1ccc(C(=O)Nc2cc(C)on2)c(NC2CC3(CC(NC(=O)CN4CCN(c5ccc(Nc6ncc7c(C)c(C(C)=O)c(=O)n(C8CCCC8)c7n6)nc5)CC4)C3)C2)n1` (stereo not drawn) [CPD-225, 2-((6-(2-(4-(6-((6-acetyl-8-cyclopentyl-5-methyl-7-oxo-7,8-dihydropyrido[2,3-d]pyrimidin-2-yl)amino)pyridin-3-yl)piperazin-1-yl)acetamido)spiro[3.3]heptan-2-yl)amino)-6-((methyl-d3)amino)-N-(5-methylisoxazol-3-yl)nicotinamide] were 30 to 50% and 50 to 80%. Taken in the same sequence, the figures for `CNc1ccc(C(=O)Nc2ccc(N(C)C)nn2)c(NC2CC(NC(=O)CN3CCN(c4ccc(Nc5ncc6c(C)c(C(C)=O)c(=O)n(C7CCCC7)c6n5)nc4)CC3)C2)n1` (stereo not drawn) [CPD-149, 2-((3-(2-(4-(6-((6-acetyl-8-cyclopentyl-5-methyl-7-oxo-7,8-dihydropyrido[2,3-d]pyrimidin-2-yl)amino)pyridin-3-yl)piperazin-1-yl)acetamido)cyclobutyl)amino)-N-(6-(dimethylamino)pyridazin-3-yl)-6-(methylamino)nicotinamide] were 30 to 50% and 50 to 80%. Taken in the same sequence, the figures for `CNc1ccc(C(=O)Nc2ccc(N(C)C)nn2)c(NC[C@H]2CC[C@H](CNC(=O)N3CCN(c4ccc(Nc5ncc6c(C)c(C(C)=O)c(=O)n(C7CCCC7)c6n5)nc4)CC3)CC2)n1` [CPD-169, 4-(6-((6-acetyl-8-cyclopentyl-5-methyl-7-oxo-7,8-dihydropyrido[2,3-d]pyrimidin-2-yl)amino)pyridin-3-yl)-N-((trans-4-(((3-((6-(dimethylamino)pyridazin-3-yl)carbamoyl)-6-(methylamino)pyridin-2-yl)amino)methyl)cyclohexyl)menthyl)piperazine-1-carboxamide] were less than 30% and 30 to 50%. On to `CNc1ccc(C(=O)Nc2ccc(N(C)C)nn2)c(NC2CC3(CC(NC(=O)N4CCN(c5ccc(Nc6ncc7c(C)c(C(C)=O)c(=O)n(C8CCCC8)c7n6)nc5)CC4)C3)C2)n1` (stereo not drawn) [CPD-134, 4-(6-((6-Acetyl-8-cyclopentyl-5-methyl-7-oxo-7,8-dihydropyrido[2,3-d]pyrimidin-2-yl)amino)pyridin-3-yl)-N-(6-((3-((6-(dimethylamino)pyridazin-3-yl)carbamoyl)-6-(methylamino)pyridin-2-yl)amino)spiro[3.3]heptan-2-yl)piperazine-1-carboxamide], for which, at CDK4, the inhibition at 0.04 µM was less than 30% and the inhibition at 0.2 µM is 30 to 50%. On the same counts, the results for `CNc1ccc(C(=O)Nc2ccc(N(C)C)nn2)c(NC2CN(CCNC(=O)CN3CCN(c4ccc(Nc5ncc6c(C)c(C(C)=O)c(=O)n(C7CCCC7)c6n5)nc4)CC3)C2)n1` [CPD-107, 2-((1-(2-(2-(4-(6-((6-Acetyl-8-cyclopentyl-5-methyl-7-oxo-7,8-dihydropyrido[2,3-d]pyrimidin-2-yl)amino)pyridin-3-yl)piperazin-1-yl)acetamido)ethyl)azetidin-3-yl)amino)-N-(6-(dimethylamino)pyridazin-3-yl)-6-(methylamino)nicotinamide] are less than 30% and less than 30%. Regarding `CNc1ccc(C(=O)Nc2ccc(N(C)C)nn2)c(NC2CC(CNC(=O)C3(CN4CCN(c5ccc(Nc6ncc7c(C)c(C(C)=O)c(=O)n(C8CCCC8)c7n6)nc5)CC4)CC3)C2)n1` (stereo not drawn) [CPD-172, 2-((3-((1-((4-(6-((6-acetyl-8-cyclopentyl-5-methyl-7-oxo-7,8-dihydropyrido[2,3-d]pyrimidin-2-yl)amino)pyridin-3-yl)piperazin-1-yl)methyl)cyclopropane-1-carboxamido)methyl)cyclobutyl)amino)-N-(6-(dimethylamino)pyridazin-3-yl)-6-(methylamino)nicotinamide], on CDK4, the inhibition at 0.04 µM is 50 to 80% and the inhibition at 0.2 µM fell in the range of 50 to 80%. At CDK4, `CNc1ccc(C(=O)Nc2cc(C)n(C(C)C)n2)c(NC2CC3(CC(NC(=O)CN4CCN(c5ccc(Nc6ncc7c(C)c(C(C)=O)c(=O)n(C8CCCC8)c7n6)nc5)CC4)C3)C2)n1` (stereo not drawn) [CPD-99, 2-((6-(2-(4-(6-((6-Acetyl-8-cyclopentyl-5-methyl-7-oxo-7,8-dihydropyrido[2,3-d]pyrimidin-2-yl)amino)pyridin-3-yl)piperazin-1-yl)acetamido)spiro[3.3]heptan-2-yl)amino)-N-(1-isopropyl-5-methyl-1H-pyrazol-3-yl)-6-(methylamino)nicotinamide] registered an inhibition at 0.04 µM of 30 to 50% and an inhibition at 0.2 µM of 50 to 80%. Taken in the same sequence, the figures for `CNc1ccc(C(=O)Nc2ccc(N(C)C)nn2)c(NCCC2CC(NC(=O)CN3CCN(c4ccc(Nc5ncc6c(C)c(C(C)=O)c(=O)n(C7CCCC7)c6n5)nc4)CC3)C2)n1` (stereo not drawn) [CPD-41, 2-((2-(3-(2-(4-(6-((6-Acetyl-8-cyclopentyl-5-methyl-7-oxo-7,8-dihydropyrido[2,3-d]pyrimidin-2-yl)amino)pyridin-3-yl)piperazin-1-yl)acetamido)cyclobutyl)ethyl)amino)-N-(6-(dimethylamino)pyridazin-3-yl)-6-(methylamino)nicotinamide] were 30 to 50% and 50 to 80%.

On CDK4, `CNc1ccc(C(=O)Nc2cc(C)[nH]n2)c(NC2CC3(CC(NC(=O)CN4CCN(c5ccc(Nc6ncc7c(C)c(C(C)=O)c(=O)n(C8CCCC8)c7n6)nc5)CC4)C3)C2)n1` (stereo not drawn) [CPD-92, 2-((6-(2-(4-(6-((6-Acetyl-8-cyclopentyl-5-methyl-7-oxo-7,8-dihydropyrido[2,3-d]pyrimidin-2-yl)amino)pyridin-3-yl)piperazin-1-yl)acetamido)spiro[3.3]heptan-2-yl)amino)-N-(5-methyl-1H-pyrazol-3-yl)-6-(methylamino)nicotinamide] gave an inhibition at 0.04 µM of less than 30% and an inhibition at 0.2 µM of less than 30%.
